Data: US7476687B2, “Substituted furo[2,3-g]indazoles for the treatment of glaucoma” (Alcon, Inc., priority 2003, dated 2009)

Tests used:
[1] = tested on: Conscious Cynomolgus Monkeys; assay: IOP Response in Conscious Cynomolgus Monkeys; type: in vivo, cynomolgus monkey; conditions: right eye
Method: IOP was determined with an Alcon Pneumatonometer after light corneal anesthesia with 0.1% proparacaine. Eyes were washed with saline after each measurement. After a baseline IOP measurement, test compound was instilled in one 30 μL aliquot to the right eyes only of nine cynomolgus monkeys. Vehicle was instilled in the right eyes of six additional animals. Subsequent IOP measurements were taken at 1, 3, and 6 hours.

5HT2A(rat) [2] = molecular target: T1, 5HT2A(rat) (Rattus norvegicus, UniProt P14842); assay: 5-HT2 Receptor Binding Assay ([125I]DOI competition, cerebral cortex homogenates); set-up: Aliquots of post mortem rat or human cerebral cortex homogenates (400 μL) dispersed in 50 mM TrisHCl buffer; from tissue; host or cells: post mortem rat cerebral cortex homogenate; conditions: inhibition of [125I]DOI binding
Method: 5-HT2 Receptor Binding Assay
Aliquots of post mortem rat or human cerebral cortex homogenates (400 μL) dispersed in 50 mM TrisHCl buffer (pH 7.4) are incubated with [^125I]DOI (80 pM final) in the absence or presence of methiothepin (10 μM final) to define total and non-specific binding, respectively, in a total volume of 0.5 mL. The assay mixture is incubated for 1 hour at 23° C. in polypropylene tubes and the assays terminated by rapid vacuum filtration over Whatman GF/B glass fiber filters previously soaked in 0.3% polyethyleneimine using ice-cold buffer. Test compounds (at different concentrations) are substituted for methiothepin. Filter-bound radioactivity is determined by scintillation spectrometry on a beta counter. The data are analyzed using a non-linear, iterative curve-fitting computer program [Trends Pharmacol. Sci., 16, 413 (1995)] to determine the compound affinity parameter. The concentration of the compound needed to inhibit the [^125I]DOI binding by 50% of the maximum is termed the IC50 or Ki value.

5HT2A(rat) [3] = molecular target: T1, 5HT2A(rat); assay: 5HT2 Functional Assay: [Ca2+]i Mobilization (FLIPR, A7r5 cells); type: cell-based; set-up: endogenous in cells; host or cells: A7r5 rat vascular smooth muscle cells; conditions: for EC50: [Ca2+]i mobilization, rat vascular smooth muscle cells A7r5; for Emax: percentage of maximum 5-HT-induced response, A7r5 cells
Method: The receptor-mediated mobilization on intracellular calcium ([Ca^2+]i) was studied using the Fluorescence Imaging Plate Reader (FLIPR) instrument. Rat vascular smooth muscle cells, A7r5, were grown in a normal media of DMEM/10% FBS and 10 μg/mL gentamycin. Confluent cell monolayers were trypsinized, pelleted, and re-suspended in normal media. Cells were seeded in a 50 μL volume at a density of 20,000 cells/well in a black wall, 96-well tissue culture plate and grown for 2 days.
On the day of the experiment, one vial of FLIPR Calcium Assay Kit dye was re-suspended in 50 mL of a FLIPR buffer consisting of Hank's Balanced Salt Solution (HBSS), 20 mM HEPES, and 2.5 mM probenecid, pH 7.4. Cells were loaded with the calcium-sensitive dye by addition of an equal volume (50 μL) to each well of the 96-well plate and incubated with dye for 1 h at 23° C.
Compounds were diluted 1:50 in 20% DMSO/20% Ethanol. For “hit” screening, compounds were further diluted 1:10 in FLIPR buffer and tested at a final concentration of 10 μM.
The compound plate and cell plate were placed in the FLIPR instrument. At the beginning of an experimental run, a signal test was performed to check the basal fluorescence signal from the dye-loaded cells and the uniformity of the signal across the plate. The basal fluorescence was adjusted between 8000-12000 counts by modifying the exposure time, the camera F-stop, or the laser power. Instrument settings for a typical assay were the following: laser power 0.3-0.6 W, camera F-stop F/2, and exposure time 0.4 sec. An aliquot (25 μL) of the test compound was added to the existing 100 μL dye-loaded cells at a dispensing speed of 50 μL/sec. Fluorescence data were collected in real-time at 1.0 sec intervals for the first 60 secs and at 6.0 sec intervals for an additional 120 secs.

[4] = 1 hour after dose, 300 μg topical
[5] = 3 hours after dose, 300 μg topical
[6] = 6 hours after dose, 300 μg topical

T1 sequence (P14842 whole entry): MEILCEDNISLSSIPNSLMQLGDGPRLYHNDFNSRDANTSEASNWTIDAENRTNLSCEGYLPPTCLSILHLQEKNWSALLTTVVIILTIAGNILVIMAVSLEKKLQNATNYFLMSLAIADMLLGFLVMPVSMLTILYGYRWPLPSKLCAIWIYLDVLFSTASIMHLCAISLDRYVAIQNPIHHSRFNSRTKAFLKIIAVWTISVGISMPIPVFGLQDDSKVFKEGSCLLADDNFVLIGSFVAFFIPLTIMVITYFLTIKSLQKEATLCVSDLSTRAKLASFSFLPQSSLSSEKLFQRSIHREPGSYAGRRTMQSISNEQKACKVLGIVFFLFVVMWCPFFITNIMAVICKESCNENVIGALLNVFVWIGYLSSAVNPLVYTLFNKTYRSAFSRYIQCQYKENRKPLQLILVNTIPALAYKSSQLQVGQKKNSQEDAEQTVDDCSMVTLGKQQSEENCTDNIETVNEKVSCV

Structure (SMILES)	Percent IOP Reduction ± SEM ([1]; 1 hour after dose, 100 μg topical) [%]	Percent IOP Reduction ± SEM ([1]; 3 hours after dose, 100 μg topical) [%]	Percent IOP Reduction ± SEM ([1]; 6 hours after dose, 100 μg topical) [%]	IC50 (5HT2A(rat) [2]) [nM]	Percent IOP Reduction ± SEM [1, 4] [%]	Percent IOP Reduction ± SEM [1, 5] [%]	Percent IOP Reduction ± SEM [1, 6] [%]	EC50 (5HT2A(rat) [3]) [nM]	Emax (5HT2A(rat) [3]) [%]	melting point [°C]
COc1cc(C[C@@H](C)N)c(OC)cc1I [(R)-DOI, reference compound]	11 ± 5	25 ± 3	34 ± 5							
C[C@H](N)Cn1ncc2ccc3oc(C(N)=O)cc3c21 [Example 3, 1-((S)-2-Aminopropyl)-1H-furo[2,3-g]indazole-7-carboxylic acid amide]				2.3	9 ± 4	23 ± 4	27 ± 5	158	87	
CNC(=O)c1cc2c(ccc3cnn(C[C@H](C)N)c32)o1.O=C(O)/C=C/C(=O)O [Example 4, 1-((S)-2-Aminopropyl)-1H-furo[2,3-g]indazole-7-carboxylic acid methyl amide fumarate]				0.81	13 ± 3	30 ± 4	31 ± 4	54	98	180 to 182
C[C@H](N)Cn1ncc2ccc3oc(C(=O)NCC(C)(C)CO)cc3c21 [Example 11, 1-((S)-2-Aminopropyl)-1H-furo[2,3-g]indazole-7-carboxylic acid (3-hydroxy-2,2-dimethyl-propyl)-amide]				1.8	10 ± 5	23 ± 5	26 ± 5	74	76	
